Where a SMILES comes first, the peptide text is derived from it. Bridges are numbered along the chain shown (N, C = ends). [ ]: non-standard residue; d: D form. The star is where a group is joined. hPhe(3-Cl-4-CF3) = N[C@@H](CCc1ccc(C(F)(F)F)c(Cl)c1)C(=O)O; NPrPhe(4-CF3) = CCCN[C@@H](Cc1ccc(C(F)(F)F)cc1)C(=O)O; NMeGly(cPent) = CN[C@H](C(=O)O)C1CCCC1; Pro(4,4-F2) = O=C(O)[C@@H]1CC(F)(F)CN1; NMeL = CN[C@@H](CC(C)C)C(=O)O; Morpholide = C1CN(*)CCO1; Ac5c = NC1(C(=O)O)CCCC1; Sar = CNCC(=O)O
Legend:
[1] = molecular target: GDP-bound HRAS wild-type protein (Homo sapiens, UniProt P01112); assay: Binding to HRAS by surface plasmon resonance (SPR), Single Cycle Kinetics; conditions: for HRAS/KRAS (ratio of KD value with respect to HRAS to KD value with respect to KRAS): GDP-bound HRAS wild-type vs GDP-bound KRAS wild-type
GDP-bound HRAS wild-type protein, sequence (P01112 whole entry): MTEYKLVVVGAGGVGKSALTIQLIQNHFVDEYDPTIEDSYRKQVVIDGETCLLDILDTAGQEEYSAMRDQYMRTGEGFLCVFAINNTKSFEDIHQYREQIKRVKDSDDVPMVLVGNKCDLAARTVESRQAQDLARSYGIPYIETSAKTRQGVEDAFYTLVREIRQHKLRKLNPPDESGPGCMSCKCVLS

[2] = molecular target: GDP-bound NRAS wild-type protein (Homo sapiens, UniProt P01111); assay: Binding to NRAS by surface plasmon resonance (SPR), Single Cycle Kinetics; conditions: for NRAS/KRAS (ratio of KD value with respect to NRAS to KD value with respect to KRAS): GDP-bound NRAS wild-type vs GDP-bound KRAS wild-type
GDP-bound NRAS wild-type protein, sequence (P01111 whole entry): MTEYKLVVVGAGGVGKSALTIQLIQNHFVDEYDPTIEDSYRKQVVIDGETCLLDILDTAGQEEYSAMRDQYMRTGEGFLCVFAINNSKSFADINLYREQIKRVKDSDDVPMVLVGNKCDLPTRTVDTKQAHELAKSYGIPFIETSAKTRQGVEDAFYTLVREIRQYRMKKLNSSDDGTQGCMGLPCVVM

[3] = KD ratio HRAS/KRAS, SPR, GDP-bound wild-type proteins
[4] = KD ratio NRAS/KRAS, SPR, GDP-bound wild-type proteins

CCO[C@@H]1C[C@H]2C(=O)NC3(CCC3)C(=O)N(C)[C@@H](C3CCCC3)C(=O)N(C)[C@H](C(=O)N3CCOCC3)CC(=O)N(C)[C@@H](COCC(F)(F)F)C(=O)N[C@@H]([C@@H](C)CC)C(=O)N(C)CC(=O)N(C)[C@H]3CCCCCN(C3=O)[C@@H](Cc3ccc(C(F)(F)F)cc3)C(=O)N(C)CC(=O)N[C@@H](CCc3cc(F)c(C(F)(F)F)c(F)c3)C(=O)N2C1 [PP0853]
HRAS/KRAS (ratio of KD value with respect to HRAS to KD value with respect to KRAS) ([1]; KD ratio, SPR): B (a compound having 3 or more and less than 10 is denoted as B)
NRAS/KRAS (ratio of KD value with respect to NRAS to KD value with respect to KRAS) ([2]; KD ratio, SPR): B (a compound having 3 or more and less than 10 is denoted as B)

CCO[C@@H]1C[C@H]2C(=O)NC3(CCC3)C(=O)N(C)[C@@H](C3CCCC3)C(=O)N(C)[C@H](C(=O)N(C)CCOC)CC(=O)N(C)[C@@H](CC(C)C)C(=O)N[C@@H]([C@@H](C)CC)C(=O)N(C)CC(=O)N(C)[C@H]3C/C=C\CCN(C3=O)[C@@H](Cc3ccc(C(F)(F)F)cc3)C(=O)N(C)CC(=O)N[C@@H](CCc3ccc(C(F)(F)F)c(OC)c3)C(=O)N2C1 [PP1324]
HRAS/KRAS (ratio of KD value for GDP-bound HRAS wild-type protein to KD value for KRAS) ([1]; SPR, KD ratio class): A (a compound having 10 or more and less than 20 is denoted as A)
NRAS/KRAS (ratio of KD value for GDP-bound NRAS wild-type protein to KD value for KRAS) ([2]; SPR, KD ratio class): A (a compound having 10 or more and less than 20 is denoted as A)

CCO[C@@H]1C[C@H]2C(=O)NC3(CC(C)(C)C3)C(=O)N(C)[C@@H](C3CCCC3)C(=O)N(C)[C@H](C(=O)N(C)C)CC(=O)N(C)[C@H]3CCCCCCc4ccc(cc4)C[C@@H](C(=O)N(C)CC(=O)N[C@@H](CCc4ccc(Cl)c(Cl)c4)C(=O)N2C1)N1CC/C=C\C[C@@H](C1=O)N(C)C(=O)CN(C)C(=O)[C@H]([C@@H](C)CC)NC3=O [PP3071]
HRAS/KRAS (ratio of KD value with respect to GDP-bound HRAS wild-type protein to KD value with respect to KRAS) [1, 3]: B (a compound having 3 or more and less than 10 is denoted as B)
NRAS/KRAS (ratio of KD value with respect to GDP-bound NRAS wild-type protein to KD value with respect to KRAS) [2, 4]: A (a compound having 10 or more and less than 20 is denoted as A)

CCC[C@H]1C(=O)N[C@@H]([C@@H](C)CC)C(=O)N(C)CC(=O)N(C)[C@H]2C/C=C\CCN(C2=O)[C@@H](Cc2ccc(C)cc2)C(=O)N(C)CC(=O)N[C@@H](CCc2ccc(C(F)(F)F)c(OC)c2)C(=O)N2CC3(CC3)C[C@H]2C(=O)NC2(CC(C)(C)C2)C(=O)N(C)[C@@H](CC(F)(F)F)C(=O)N(C)[C@H](C(=O)N(C)C)CC(=O)N1C [PP3012]
HRAS/KRAS (ratio of KD value with respect to GDP-bound HRAS wild-type protein to KD value with respect to KRAS) [1, 3]: A (a compound having 10 or more and less than 20 is denoted as A)
NRAS/KRAS (ratio of KD value with respect to GDP-bound NRAS wild-type protein to KD value with respect to KRAS) [2, 4]: A (a compound having 10 or more and less than 20 is denoted as A)

CCO[C@@H]1C[C@H]2C(=O)NC3(CC(C)(C)C3)C(=O)N(C)[C@@H](C3CCCCC3)C(=O)N(C)[C@H](C(=O)N(C)C)CC(=O)N(C)[C@@H](COC)C(=O)N[C@@H]([C@@H](C)CC)C(=O)N(C)CC(=O)N(C)[C@H]3C/C=C\CCN(C3=O)[C@@H](Cc3ccc(C)cc3)C(=O)N(C)CC(=O)N[C@@H](CCc3cc(F)c(C(F)(F)F)c(F)c3)C(=O)N2C1 [PP2659]
HRAS/KRAS (ratio of KD value with respect to GDP-bound HRAS wild-type protein to KD value with respect to KRAS) ([1]; KD ratio HRAS/KRAS, class symbols): A (a compound having 10 or more and less than 20 is denoted as A)
NRAS/KRAS (ratio of KD value with respect to GDP-bound NRAS wild-type protein to KD value with respect to KRAS) ([2]; KD ratio NRAS/KRAS, class symbols): A (a compound having 10 or more and less than 20 is denoted as A)

CCOC[C@H]1C(=O)N[C@@H]([C@@H](C)CC)C(=O)N(C)CC(=O)N(C)[C@H]2C/C=C\CCN(C2=O)[C@@H](CC2CCCCC2)C(=O)N(C)CC(=O)N[C@@H](CCc2cc(F)c(C(F)(F)F)c(F)c2)C(=O)N2C[C@H](OCC)C[C@H]2C(=O)NC2(CC(C)(C)C2)C(=O)N(C)[C@@H](C(CC)CC)C(=O)N(C)[C@H](C(=O)N(C)C)CC(=O)N1C [PP2479]
HRAS/KRAS (ratio of KD value with respect to HRAS to KD value with respect to KRAS) ([1]; SPR): A (a compound having 10 or more and less than 20 is denoted as A)
NRAS/KRAS (ratio of KD value with respect to NRAS to KD value with respect to KRAS) ([2]; SPR): AA (a compound having 20 or more is denoted as AA)

CCCN1C(=O)CN(C)C(=O)CNC(=O)[C@H]([C@@H](C)CC)NC(=O)[C@H](CC(C)C)N(C)C(=O)C[C@@H](C(=O)N2CCOCC2)NC(=O)[C@H](C2CCCC2)N(C)C(=O)C2(CCCC2)NC(=O)[C@@H]2CC(F)(F)CN2C(=O)[C@H](CCc2ccc(C(F)(F)F)c(Cl)c2)NC(=O)CN(C)C(=O)[C@@H]1Cc1ccc(C(F)(F)F)cc1 [PP0327] ([NMeL]IG[Sar][NPrPhe(4-CF3)][Sar][hPhe(3-Cl-4-CF3)][Pro(4,4-F2)][Ac5c][NMeGly(cPent)]D-Morpholide; lactam N-11)
HRAS/KRAS (ratio of KD for GDP-bound HRAS wild-type to KD for KRAS) ([1]; KD ratio HRAS/KRAS, SPR): B (a compound having 3 or more and less than 10 is denoted as B)
NRAS/KRAS (ratio of KD for GDP-bound NRAS wild-type to KD for KRAS) ([2]; KD ratio NRAS/KRAS, SPR): B (a compound having 3 or more and less than 10 is denoted as B)

CC[C@H](C)[C@@H]1NC(=O)[C@@H]2CCCCc3ccc(cc3)C[C@@H](C(=O)N(C)CC(=O)N[C@@H](CCc3ccc(C(F)(F)F)c(OC)c3)C(=O)N3C[C@H](OC4CCC4)C[C@H]3C(=O)NC3(CC(C)(C)C3)C(=O)N(C)[C@@H](C3CCCC3)C(=O)N(C)[C@H](C(=O)N(C)CC)CC(=O)N2C)N2CC/C=C\C[C@@H](C2=O)N(C)C(=O)CN(C)C1=O [PP3079]
HRAS/KRAS (ratio of KD value with respect to GDP-bound HRAS wild-type protein to KD value with respect to KRAS) [1, 3]: B (a compound having 3 or more and less than 10 is denoted as B)
NRAS/KRAS (ratio of KD value with respect to GDP-bound NRAS wild-type protein to KD value with respect to KRAS) [2, 4]: A (a compound having 10 or more and less than 20 is denoted as A)

Reference: US20250230193A1, “CYCLIC COMPOUND HAVING SELECTIVE KRAS INHIBITORY EFFECT ON HRAS AND NRAS” (CHUGAI SEIYAKU KABUSHIKI KAISHA, priority 2022, published 2025)
